Marks after values point to notes of the source that are not given here.
Assays:
[1] = general statement; cited from earlier work
[2] = Dissolution of solid phase cystine by cystine binding drugs in normal urine; design: species or system human; conditions: for molar proportion of cystine dissolved per drug, urine: normal urine; for Regression slope of cystine uptake on drug molarity, URINE: ten normal urine samples, 48 hours, 37° C.
Protocol: (§1) Using the same incubation buffer and cystine-dissolving agent systems as for the initial solid phase dissolution assay given in Example 1, increasing amounts of D-penicillamine, tiopronin, or captopril were added to 25 ml aliquots of the incubation buffer. A fixed amount of cystine was added; for tiopronin and D-penicillamine, about 40 mg, and for captopril about 20 mg. […] Incubation was carried out as in Example 1. After 48 hours, the pellet and supernatant were separated by centrifugation, the pellet was dissolved in 25 ml of cystine-dissolving agent, an alkalinizing buffer of 0.1 M sodium carbonate, pH 9.9, (Sigma Aldrich Corp, Catalog # S-7795), to form a final cystine solution. Cystine concentration was determined both in the supernatant and the final cystine solution according to the procedure given in Example 3. This same protocol was repeated using the ten normal urine samples employed in the basic solid phase dissolution study described in Example 1.
(§2) Cystine concentrations in either the incubation buffer or normal urine after removal of the residual solid phase cystine, or the final cystine solution after the dissolution of the solid phase cystine in a cystine-dissolving agent as shown in Example 1 and 2 were measured using the modified cyanide-nitroprusside method for quantifying urinary cystine concentration as reported by Nakagawa and Coe (Nakagawa, Y. and Coe, F. 1999. Clin Chim Acta 289:57–68). A 100 microliter aliquot was mixed with 400 microliters of water and 1 milliliter of 0.01 M sodium phosphate buffer containing 0.15 mol/liter NaCl, pH 7.3 (PBS). After adding 300 microliters of 10% NaCN aqueous solution (w/v), the sample was incubated for twenty minutes at room temperature. Color was developed by adding 100 microliters of 20% sodium nitroprusside aqueous solution (w/v). Within 20 seconds of the sodium nitroprusside addition, color intensity was then measured at 521 nm using a Beckman spectrophotometer (model DU 640), and cystine concentration was calculated by comparison to a standard curve which was prepared with each assay.
(§3) Routine means and t tests and linear regression analysis used standard statistical software (Systat, SPSS Corp., Chicago, Ill.). Differences in slopes of uptake with drugs were assessed by multivariate analysis in which cystine uptake was the dependent variable; drug molarity, the independent variable; either buffer vs urine or drug type, the categorical variable; and probability of homogeneity of slopes between the groups, defined by the categorical variable tested. Simple regression analysis was used to obtain the actual values of the slopes.

[3] = Dissolution of solid phase cystine by cystine binding drugs in incubation buffer; conditions: for Regression slope of cystine uptake on drug molarity, BUFFER: incubation buffer, 48 hours, 37° C.
Protocol: as §1, §2, §3

| Compound | solubility of cystine in average normal urine [1] [µg/mL] | molar proportion of cystine dissolved per drug, urine [2] [mole/mole] | Regression slope of cystine uptake on drug molarity, URINE [2] | molar proportion of cystine dissolved per drug, buffer [3] [mole/mole] | Regression slope of cystine uptake on drug molarity, BUFFER [3] |
| --- | --- | --- | --- | --- | --- |
| N[C@@H](CSSC[C@H](N)C(=O)O)C(=O)O [cystine] | 200 to 400 |  |  |  |  |
| CC(C)(S)[C@@H](N)C(=O)O [D-penicillamine] |  | 0.21±0.008 | 0.21 ± 0.01 | 0.24±0.01 | 0.25 ± 0.01 |
| C[C@H](CS)C(=O)N1CCC[C@H]1C(=O)O [captopril] |  | 0.35±0.01 | 0.35 ± 0.01# | 0.36±0.04 | 0.36 ± 0.04# |
| CC(S)C(=O)NCC(=O)O (stereo not shown) [tiopronin] |  | 0.36±0.01 | 0.36 ± 0.01 | 0.41±0.02 | 0.41 ± 0.02# |
